{
  "source": "patent US20020128464A1",
  "about": "“Method of finding modulators of enzymes of the carotenoid biosynthetic pathway” (priority 2000, published 2002)",
  "key": {"Erwinia uredovora PSY": {"target": "Erwinia uredovora PSY (Pantoea ananas, UniProt P21683)", "sequence (P21683 whole entry)": "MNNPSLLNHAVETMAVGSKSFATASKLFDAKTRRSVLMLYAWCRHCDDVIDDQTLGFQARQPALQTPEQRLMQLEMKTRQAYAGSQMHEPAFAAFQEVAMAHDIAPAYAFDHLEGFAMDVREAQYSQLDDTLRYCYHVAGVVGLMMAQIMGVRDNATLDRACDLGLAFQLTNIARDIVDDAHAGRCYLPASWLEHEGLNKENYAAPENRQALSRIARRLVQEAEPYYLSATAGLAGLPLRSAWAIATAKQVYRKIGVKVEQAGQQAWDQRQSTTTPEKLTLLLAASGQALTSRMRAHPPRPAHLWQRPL", "details": "overexpressed Erwinia uredovora PSY (Neudert, 1998); read-out: pI valve (inhibition of phytoene synthase); cited from earlier work"}, "PDS": {"tested_on": "PDS", "details": "in vitro (Trebst, 1997); cited from earlier work"}, "tobacco plants": {"tested_on": "tobacco plants", "assay": "Carotenoid content (phytoene accumulation) of treated tobacco plants, HPLC", "type": "in vivo, Nicotiana tabacum", "details": "tobacco plants treated with norflurazon; comparator for PDS antisense lines"}},
  "data": [
    {"compound": "C=C(CC[C@]12O[C@H](C(=O)O)[C@@](O)(C(=O)O)[C@](C(=O)O)(O1)[C@H](OC(=O)/C=C/[C@@H](C)C[C@@H](C)CC)[C@H]2O)[C@@H](OC(C)=O)[C@H](C)Cc1ccccc1", "note": "[squalestatin]", "values": [
      {"measurement": "IC50", "setting": "Erwinia uredovora PSY", "result": 15, "unit": "µM"}
    ]},
    {"compound": "fluridone", "values": [
      {"measurement": "photosystem II activity following inhibition of PDS", "setting": "PDS", "result": "loss of photosystem II activity"}
    ]},
    {"compound": "CNc1cnn(-c2cccc(C(F)(F)F)c2)c(=O)c1Cl", "note": "[norflurazon]", "values": [
      {"measurement": "accumulation of phytoene", "setting": "tobacco plants", "result": "very high accumulation of phytoene"},
      {"measurement": "photosystem II activity following inhibition of PDS", "setting": "PDS", "result": "loss of photosystem II activity"}
    ]}
  ]
}
